Test results from patent US20090029979A1, “5-HTX MODULATORS” (BIO-MEDISINSK INNOVASJON AS, priority 2005, published 2009).
Like-named read-outs stand apart in the source and are kept apart here.

Assays:
[1] = biological target: T1, human 5-HT7(a) receptors (Homo sapiens, UniProt P34969); assay: Radioligand binding assay with [3H]5-CT, membranes of HEK293 cells stably expressing human 5-HT7(a) receptors; settings: 5-HT7 ligands, values are pKd ± half-range, read-out: Binding affinity (pKd value) (pKd ± SEM) (converted)
T1 construct: expressed in transfected cells
T1 sequence (P34969 1-445 isoform P34969-2): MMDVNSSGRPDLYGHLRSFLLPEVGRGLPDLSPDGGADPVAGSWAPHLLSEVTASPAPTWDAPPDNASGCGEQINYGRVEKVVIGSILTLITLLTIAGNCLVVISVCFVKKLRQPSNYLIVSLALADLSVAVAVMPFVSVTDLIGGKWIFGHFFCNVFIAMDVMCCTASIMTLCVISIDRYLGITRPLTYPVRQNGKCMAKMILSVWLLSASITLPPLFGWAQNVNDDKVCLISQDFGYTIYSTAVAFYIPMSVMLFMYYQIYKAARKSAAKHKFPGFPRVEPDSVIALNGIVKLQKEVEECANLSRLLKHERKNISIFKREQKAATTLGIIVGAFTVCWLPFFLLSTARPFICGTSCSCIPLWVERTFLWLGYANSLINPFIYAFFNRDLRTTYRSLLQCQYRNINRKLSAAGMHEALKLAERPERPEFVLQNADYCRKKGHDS
Protocol: (§1) Binding assays were performed in 96-well, round-bottom microtiter plates with total reaction volumes of 50-200 μl, containing the indicated concentration of [^3H]GR113808 with or without competing unlabelled ligand in a binding buffer containing 50 mM Tris-HCl (pH 7.5 at RT), 1 mM EDTA, 5 mM EGTA, 2 mM MgCl2, 1 mM ascorbate, 0.1% BSA and 100 μM GTP. The plates were incubated at 23° C. for 60 min and harvested onto UniFilter™-96 GF/C™ (Packard Instrument Co., Meriden, Conn., USA), presoaked in 0.3% polyethyleneimine (Sigma), using a Packard FilterMate Universal Harvester with 96-well format, and washed 4-6 times with approximately 0.25 ml/well of ice-cold buffer, containing 50 mM Tris-HCl (pH 7.0 at RT) and 2 mM MgCl2. The filters were dried and counted at approximately 40% efficiency in a Top-Count liquid scintillation counter (Packard), using 20 μl per filter well of Micro-Scint liquid scintillation cocktail (Packard).
The same materials and methods described in example 83 were used for the biological testing of hydrophilic 5-HT7 and 5-HT2A ligands. Membrane preparations of HEK293 cell lines stably expressing human 5-HT7(a) receptors (Krobert et al. 2001), or HEK293 cells transiently transfected with human 5-HT2A receptor were used in the binding assays. 5-Carboxamido [^3H]tryptamine trifluoroacetate ([^3H]5-CT) and [^3H]ketanserin were used as radioligands in binding assays testing 5-HT7 and 5-HT2A ligands, respectively.
[^3H]5-CT (91 Ci/mmol) was from Amersham (Buckinghamshire, England). [^3H]ketanserin (72.2 Ci/mmol) was from Perkin Elmer (Boston, Mass., USA).

[2] = biological target: T2, human 5-HT4(b) receptors (Homo sapiens, UniProt Q13639); assay: Radioligand binding assay with [3H]GR113808, membranes of HEK293 cells stably expressing human 5-HT4(b) receptors
T2 construct: expressed in transfected cells
T2 sequence (Q13639 whole entry): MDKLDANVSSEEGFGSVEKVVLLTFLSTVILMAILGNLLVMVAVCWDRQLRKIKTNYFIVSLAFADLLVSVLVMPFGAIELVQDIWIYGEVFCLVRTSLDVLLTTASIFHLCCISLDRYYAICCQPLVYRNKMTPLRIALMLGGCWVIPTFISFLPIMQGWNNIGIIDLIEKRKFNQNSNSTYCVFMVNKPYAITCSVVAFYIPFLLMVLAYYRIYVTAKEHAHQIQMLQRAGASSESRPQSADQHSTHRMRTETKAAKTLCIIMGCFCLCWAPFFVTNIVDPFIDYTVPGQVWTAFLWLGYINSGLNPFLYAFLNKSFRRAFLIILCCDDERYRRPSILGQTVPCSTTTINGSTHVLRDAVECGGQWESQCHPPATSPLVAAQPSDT
Protocol: (§2) The development of HEK293 cell lines stably expressing human 5-HT4(b) receptors was described and published previously (Bach et al. 2001). Briefly, HEK293 cells (ATCC) were grown in Dulbecco's modified Eagle's medium with 10% fetal calf serum and penicillin (100 U/ml) and streptomycin (100 μg/ml). Cells were transfected with plasmid DNA (pcDNA3.1(−) containing human 5-HT4(b) receptor cDNA) using SuperFect Transfection Reagent (QIAGEN) according to the manufacturers protocol. Serial dilutions of transfected cells were plated in 96 well plates containing G418 (geneticin; Amersham) at 0.4 mg/ml, and isolated single colonies of cells transformed to the neomycin-resistant phenotype were expanded and tested for expression of serotonin receptors by measuring serotonin-stimulated adenylyl cyclase activity (Themmen et al. 1993). Transformed cells were always grown in the presence of G418 (0.4 mg/ml). For binding and adenylyl cyclase analysis, stable cell lines were grown and maintained in UltraCULTURE™ general purpose serum-free medium (BioWhittaker, Walkersville, Md., USA), supplemented with L-glutamine (2 mM), penicillin (100 U/ml) and streptomycin (100 μg/ml).
(§3) Membranes were prepared from stably transfected HEK293 cells cultured on 150-mm cell culture dishes and grown to 80% confluence in serum-free medium (UltraCULTURE™, BioWhittaker) with penicillin (10 U/ml) and 2 mM L-Glutamine (BioWhittaker). Cells were washed twice with 10 ml ice-cold HBSS, scraped with a rubber policeman in 10 ml ice-cold HBSS and collected by centrifugation at 800 g for 5 min at 4° C. The cell pellet was resuspended in 1 ml/dish ice-cold STE buffer (27% (w/v) sucrose, 50 mM Tris-HCl, pH 7.5 at 20° C., 5 mM EDTA) and homogenized with an Ultra-Turrax (IKA) homogenizer, using five 10 s bursts with 30 s cooling in ice-water between bursts. To remove nuclei, the homogenate was centrifuged at 300 g for 5 min at 4° C. and the supernatant was further centrifuged at 17000 g for 20 min at 4° C. and the supernatant removed. The crude membrane pellet was resuspended with ten strokes of tight fitting pestle B in a Dounce glass-glass homogenizer in 1 ml/dish ice-cold TE (50 mM Tris-HCl, pH 7.5 at RT, 5 mM EDTA). This procedure was repeated twice and the resuspended membranes were finally aliqouted and flash frozen in liquid nitrogen and stored at −70° C. until use.
as §1
(§4) Binding and adenylyl cyclase data were analyzed by non-linear regression using Microsoft Excel with the Solver add-in, using the below equations.
Competitive binding assays—The data were fit to the equation
where a is non-specific binding, b is total binding in the absence of competitor, c is IC50, and x is the concentration of competitor. Where relevant, relative binding data were obtained by recalculating the data using a=0 and b=100.
IC50 values from competitive binding assays were converted to Kb values by the method of Cheng and Prusoff (1973).

[3] = biological target: T2, human 5-HT4(b) receptors; assay: Adenylyl cyclase assay in membranes of HEK293 cells stably expressing human 5-HT4(b) receptors; format: biochemical; settings: for Kb: where n = 2, ± half-range, read-out: Antagonist pKb value (pKb ± SEM) (converted)
Protocol: as §2, §3
Adenylyl cyclase activity was measured by determining conversion of [α-^32P]ATP to [^32P]cAMP in membranes prepared in STE by homogenization of cells grown and washed as described above in a Dounce glass-glass homogenizer by 10 strokes with the tight-fitting pestle. Membranes were kept on ice prior to assay. Adenylyl cyclase activities were measured on 10-μl aliquots in a final volume of 50 μl in the presence of 0.1 mM [α-^32P]ATP (1-2×10^6 cpm/assay), 4 mM MgCl2, 20 μM GTP, 1 mM EDTA, 1 mM [^3H]cAMP (ca. 10,000 cpm/assay), 1 μM 3-isobutyl-1-methyl xanthine (IBMX; Sigma), a nucleoside triphosphate regenerating system consisting of 20 mM creatine phosphate (Sigma), 0.2 mg/ml creatine phosphokinase (Sigma) and 40 U/ml myokinase (Sigma) and additives described in the text and figures. When forskolin (Calbiochem, La Jolla, Calif., USA) was used the concentration was 100 μM. Incubations were for 20 min at 32° C. Cyclic AMP formed was quantified by the double column chromatography system of Salomon et al. (1974) as modified by Bockaert et al. (1976).
as §4
Activation of adenylyl cyclase—The data were fit to the equation
where a is basal adenylyl cyclase activity, b is maximal adenylyl cyclase activity stimulated by the agonist, c is EC50, and x is the concentration of agonist.

[4] = [3H]GR113808, HEK293 membranes, human 5-HT4(b), where n = 2, ± half-range, read-out: Binding affinity (pKd value) (pKd ± SEM) (converted)

Row | Kd [2, 4] | SMILES | Kd [1] | Kb [3] | Agonist/Antagonist properties [3] | Kd [2]
1 | – | COC(=O)c1ccc(CN2CC=C(c3c[nH]c4ccc(OC)cc34)CC2)cc1 [Example 9] | 8510 nM | – | – | –
2 | 5.01 nM | O=C(CCCN1CCC(COC(=O)c2c[nH]c3ccccc23)CC1)OCC(Cl)(Cl)Cl [Example 12, 1H-indole-3-carboxylic acid 1-[3-(2,2,2-trichloroethyl-ethoxycarbonyl)-propyl]-piperidine-4-ylmethyl ester] | – | 0.741 nM | – | –
3 | 0.912 nM | O=C(O)CCCN1CCC(COC(=O)c2c[nH]c3ccccc23)CC1 [Example 13, 1H-indole-3-carboxylic acid 1-(3-carboxy-propyl)-piperidin-4-ylmethyl ester] | – | 7.08 nM | Antagonist | –
4 | 1000 nM | O=C(O)CCCN1CCC(NC(=O)c2cccc3ccccc23)CC1 [Example 17] | – | 38000 nM | – | –
5 | 1580 nM | CCOC(=O)CCCN1CCC(NC(=O)c2cccc3ccccc23)CC1 [Example 18] | – | 3240 nM | Antagonist | –
6 | 42.7 nM | O=C(OCC1CCN(Cc2ccccc2)CC1)c1cccc2ccccc12 [Example 22, 1-[(1-benzylpiperidin-4-yl)carboxymethyl] napthalene] | – | 11.2 nM | Weak partial | –
7 | 6.46 nM | CCOC(=O)CCCN1CCC(COC(=O)c2cccc3ccccc23)CC1 [Example 25] | – | 6.61 nM | Antagonist | –
8 | 12.9 nM | O=C(O)CCCN1CCC(COC(=O)c2cccc3ccccc23)CC1 [Example 26] | – | 69.2 nM | Weak partial | –
9 | 20 nM | CCOC(=O)CCCN1CCC(CNC(=O)c2cc(Cl)c(N)cc2OC)CC1 [Example 40] | – | 66.1 nM | Partial agonist | –
10 | – | O=C(NCC1CCN(Cc2ccccc2)CC1)c1c2n(c3ccccc13)CCCO2 [Example 47] | – | 0.427 nM | Antagonist | 0.158 nM
11 | – | CCOC(=O)CCCN1CCC(CNC(=O)c2c3n(c4ccccc24)CCCO3)CC1 [Example 49] | – | 1.55 nM | Antagonist | 0.123 nM
12 | – | COC(=O)CCCCCN1CCC(CNC(=O)c2c3n(c4ccccc24)CCCO3)CC1 [Example 50] | – | 0.759 nM | Antagonist | 0.135 nM
13 | – | O=C(CCCN1CCC(CNC(=O)c2c3n(c4ccccc24)CCCO3)CC1)OCC(Cl)(Cl)Cl [Example 51] | – | 0.537 nM | – | 0.263 nM
14 | 110 nM | CCOC(=O)CCCN1CCC(CNC(=O)c2c[nH]c3ccccc23)CC1 [Example 60] | – | 1620 nM | Antagonist | –
15 | 3630 nM | O=C(O)CCCN1CCC(CNC(=O)c2c[nH]c3ccccc23)CC1 [Example 62] | – | 28200 nM | – | –
16 | 0.813 nM | O=C(O)CN1CCN(S(=O)(=O)CCCN2CCC(CNC(=O)c3cccc4c3OCCO4)CC2)CC1 [Example 67] | – | 2.75 nM | Antagonist | –
17 | – | COC(=O)c1ccc(CN2CC=C(c3c[nH]c4ccccc34)CC2)cc1 [Example 68] | 11500 nM | – | – | –
18 | – | O=C(O)c1ccc(CN2CC=C(c3c[nH]c4ccccc34)CC2)cc1 [Example 69] | 81300 nM | – | – | –
19 | – | CCOC(=O)CCCN1CC=C(c2c[nH]c3ccccc23)CC1 [Example 70] | 661 nM | – | – | –
20 | – | COC(=O)c1ccc(CN2CCN(CCCCC34CCCc5cccc(c53)NC4=O)CC2)cc1 (stereo not shown) [Example 75] | 15800 nM | – | – | –
21 | – | O=C(O)c1ccc(CN2CCN(CCCCC34CCCc5cccc(c53)NC4=O)CC2)cc1 (stereo not shown) [Example 76] | 135000 nM | – | – | –
22 | – | CCCCN1CCC(CNC(=O)c2c3n(c4ccccc24)CCCO3)CC1 [SB207266, reference compound] | – | – | Antagonist | –

Row | SMILES | Kd [2, 4] | Kd [1] | Kb [3] | Agonist/Antagonist properties [3] | Kd [2]
23 | CCOP(=O)(CCN1CCC(COC(=O)c2cccc3ccccc23)CC1)OCC [Example 27] | 15.8 nM | – | 19.1 nM | Weak partial | –
24 | CC(C)n1nc(C(=O)NC2CCN(Cc3ccccc3)CC2)c2ccccc21 [Example 29, N-(1-benzylpiperidin-4-yl)-1-isopropylindazole-3-carboxamide] | 200 nM | – | 309 nM | Partial agonist | –
25 | CCOC(=O)CCCN1CCC(NC(=O)c2nn(C(C)C)c3ccccc23)CC1 [Example 31] | 67.6 nM | – | 178 nM | Partial agonist | –
26 | CC(C)n1nc(C(=O)NC2CCN(CCCC(=O)O)CC2)c2ccccc21 [Example 33] | 692 nM | – | 1050 nM | Partial agonist | –
27 | CC(C)n1nc(C(=O)NC2CCN(Cc3ccc(C(=O)OCC(Cl)(Cl)Cl)cc3)CC2)c2ccccc21 [Example 35] | 1200 nM | – | 724 nM | Partial agonist | –
28 | CC(C)n1nc(C(=O)NC2CCN(Cc3ccc(C(=O)O)cc3)CC2)c2ccccc21 [Example 36] | 2190 nM | – | 1150 nM | – | –
29 | O=C(O)CCCN1CCC(CNC(=O)c2c3n(c4ccccc24)CCCO3)CC1 [Example 52] | 2.09 nM | – | 11 nM | – | –
30 | CCOP(=O)(CCN1CCC(CNC(=O)c2c3n(c4ccccc24)CCCO3)CC1)OCC [Example 53] | 1.32 nM | – | 2.51 nM | Antagonist | –
31 | Cn1cc(C(=O)OCC2CCN(CCNS(C)(=O)=O)CC2)c2ccccc21 [GR113808, 1-methyl-1H-indole-3-carboxylic acid, [1-[2-[(methylsulfonyl)amino]ethyl]-4-piperidinyl]methyl ester, reference compound] | 0.0813 nM | – | 0.537 nM | Antagonist | –
